Patent US11433045B2, “Treatment of metabolic disorders in canine animals” (Boehringer Ingelheim Vetmedica GmbH, priority 2014, dated 2022)

Settings: various environmental conditions and during production of a medicament

N#Cc1ccc([C@@H]2O[C@H](CO)[C@@H](O)[C@H](O)[C@H]2O)cc1Cc1ccc(C2CC2)cc1.O=C(O)[C@@H]1CCCN1
physical and chemical stability: high physical and chemical stability
